Data: the kinase profiling compilation of Christmann-Franck et al. (2016)

Assays:
CSNK2A1 (human) = CSNK2A1 (human) (UniProt P68400); experiment: radiometric filter-binding kinase assay
MELK (human) = MELK (human) (UniProt Q14680); experiment: radiometric filter-binding kinase assay
MAPK14 (human) = MAPK14 (human) (UniProt Q16539); experiment: radiometric filter-binding kinase assay
[1] = target: PRKAA1 PRKAB2 PRKAG1 (human) (UniProt O43741+Q13131+P54619); experiment: radiometric filter-binding kinase assay
MAP2K1 (human) = MAP2K1 (human) (UniProt Q02750); experiment: radiometric filter-binding kinase assay
PRKAA1 or PRKAA2 (rat) = experiment: radiometric filter-binding kinase assay; settings: compound 1.0 µM; accession and sequence are those of the human protein
TEK (human) = TEK (human) (UniProt Q02763); experiment: radiometric filter-binding kinase assay
FLT1 (human) = FLT1 (human) (UniProt P17948); experiment: radiometric filter-binding kinase assay; settings: compound 1.0 µM
MAPK15 (human) = MAPK15 (human) (UniProt Q8TD08); experiment: radiometric filter-binding kinase assay
[2] = system: FGFR3 (human), P22607 [G697C]; experiment: KINOMEscan competition binding; settings: compound 1.0 µM
HUNK (human) = HUNK (human) (UniProt P57058); experiment: KINOMEscan competition binding; settings: compound 1.0 µM
CAMK2G (human) = CAMK2G (human) (UniProt Q13555); experiment: KINOMEscan competition binding; settings: compound 1.0 µM
NEK9 (human) = NEK9 (human) (UniProt Q8TD19); experiment: KINOMEscan competition binding; settings: compound 1.0 µM
SRPK1 (human) = SRPK1 (human) (UniProt Q96SB4); experiment: KINOMEscan competition binding; settings: compound 1.0 µM
AKT2 (human) = AKT2 (human) (UniProt P31751); experiment: KINOMEscan competition binding; settings: compound 1.0 µM
NTRK2 (human) = NTRK2 (human) (UniProt Q16620); experiment: KINOMEscan competition binding; settings: compound 1.0 µM
FGFR1 (human) = FGFR1 (human) (UniProt P11362); experiment: KINOMEscan competition binding; settings: compound 1.0 µM
DAPK3 (human) = DAPK3 (human) (UniProt O43293); experiment: KINOMEscan competition binding; settings: compound 1.0 µM
AURKB (human) = AURKB (human) (UniProt Q96GD4); experiment: KINOMEscan competition binding; settings: compound 1.0 µM
MAP4K3 (human) = MAP4K3 (human) (UniProt Q8IVH8); experiment: KINOMEscan competition binding; settings: compound 1.0 µM
RPS6KA1 KD1 (human) = RPS6KA1 KD1 (human) (UniProt Q15418); experiment: KINOMEscan competition binding; settings: compound 1.0 µM
PDGFRA (human) = PDGFRA (human) (UniProt P16234); experiment: KINOMEscan competition binding; settings: compound 1.0 µM
PKN1 (human) = PKN1 (human) (UniProt Q16512); experiment: KINOMEscan competition binding; settings: compound 1.0 µM
DDR1 (human) = DDR1 (human) (UniProt Q08345); experiment: KINOMEscan competition binding; settings: compound 1.0 µM
ACVR2A (human) = ACVR2A (human) (UniProt P27037); experiment: KINOMEscan competition binding; settings: compound 1.0 µM
[3] = system: PIK3CA (human), P42336 [M1043I]; experiment: KINOMEscan competition binding; settings: compound 1.0 µM
OXSR1 (human) = OXSR1 (human) (UniProt O95747); experiment: KINOMEscan competition binding; settings: compound 1.0 µM
WEE2 (human) = WEE2 (human) (UniProt P0C1S8); experiment: KINOMEscan competition binding; settings: compound 1.0 µM
GAK (human) = GAK (human) (UniProt O14976); experiment: KINOMEscan competition binding; settings: compound 1.0 µM
MAP2K7 (human) = MAP2K7 (human) (UniProt O14733); experiment: KINOMEscan competition binding; settings: compound 1.0 µM
SNRK (human) = SNRK (human) (UniProt Q9NRH2); experiment: KINOMEscan competition binding; settings: compound 1.0 µM
MARK3 (human) = MARK3 (human) (UniProt P27448); experiment: KINOMEscan competition binding; settings: compound 1.0 µM
BMPR1A (human) = BMPR1A (human) (UniProt P36894); experiment: KINOMEscan competition binding; settings: compound 1.0 µM
PRKX (human) = PRKX (human) (UniProt P51817); experiment: KINOMEscan competition binding; settings: compound 1.0 µM
[4] = system: EGFR (human), P00533 [L861Q]; experiment: KINOMEscan competition binding; settings: compound 1.0 µM
EGFR (human) = EGFR (human) (UniProt P00533); experiment: KINOMEscan competition binding; settings: compound 1.0 µM
PAK3 (human) = PAK3 (human) (UniProt O75914); experiment: KINOMEscan competition binding; settings: compound 1.0 µM

Sequence of CSNK2A1 (human) (P68400 whole entry, looked up): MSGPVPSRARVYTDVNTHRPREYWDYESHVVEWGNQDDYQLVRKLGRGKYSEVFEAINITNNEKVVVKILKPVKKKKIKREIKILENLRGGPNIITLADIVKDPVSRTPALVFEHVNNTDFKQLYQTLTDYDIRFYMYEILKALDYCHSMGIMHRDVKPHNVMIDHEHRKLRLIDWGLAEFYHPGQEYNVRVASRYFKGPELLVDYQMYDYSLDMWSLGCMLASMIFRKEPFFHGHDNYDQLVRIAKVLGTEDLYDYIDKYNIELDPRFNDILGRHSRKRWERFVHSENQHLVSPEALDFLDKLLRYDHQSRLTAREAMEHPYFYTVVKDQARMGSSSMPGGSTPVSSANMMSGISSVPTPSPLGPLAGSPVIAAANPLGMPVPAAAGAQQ
Sequence of MAP2K1 (human) (Q02750 whole entry, looked up): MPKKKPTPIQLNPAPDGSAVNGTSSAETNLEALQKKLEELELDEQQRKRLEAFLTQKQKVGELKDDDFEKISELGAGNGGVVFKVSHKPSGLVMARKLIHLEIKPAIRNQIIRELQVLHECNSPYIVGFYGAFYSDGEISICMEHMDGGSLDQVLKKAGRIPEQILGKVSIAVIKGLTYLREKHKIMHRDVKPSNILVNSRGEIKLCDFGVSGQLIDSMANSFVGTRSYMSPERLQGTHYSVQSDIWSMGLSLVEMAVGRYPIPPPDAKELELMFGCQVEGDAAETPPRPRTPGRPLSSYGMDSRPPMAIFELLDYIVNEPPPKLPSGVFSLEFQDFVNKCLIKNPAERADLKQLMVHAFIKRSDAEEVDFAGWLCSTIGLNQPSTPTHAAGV
Sequence of MELK (human) (Q14680 whole entry, looked up): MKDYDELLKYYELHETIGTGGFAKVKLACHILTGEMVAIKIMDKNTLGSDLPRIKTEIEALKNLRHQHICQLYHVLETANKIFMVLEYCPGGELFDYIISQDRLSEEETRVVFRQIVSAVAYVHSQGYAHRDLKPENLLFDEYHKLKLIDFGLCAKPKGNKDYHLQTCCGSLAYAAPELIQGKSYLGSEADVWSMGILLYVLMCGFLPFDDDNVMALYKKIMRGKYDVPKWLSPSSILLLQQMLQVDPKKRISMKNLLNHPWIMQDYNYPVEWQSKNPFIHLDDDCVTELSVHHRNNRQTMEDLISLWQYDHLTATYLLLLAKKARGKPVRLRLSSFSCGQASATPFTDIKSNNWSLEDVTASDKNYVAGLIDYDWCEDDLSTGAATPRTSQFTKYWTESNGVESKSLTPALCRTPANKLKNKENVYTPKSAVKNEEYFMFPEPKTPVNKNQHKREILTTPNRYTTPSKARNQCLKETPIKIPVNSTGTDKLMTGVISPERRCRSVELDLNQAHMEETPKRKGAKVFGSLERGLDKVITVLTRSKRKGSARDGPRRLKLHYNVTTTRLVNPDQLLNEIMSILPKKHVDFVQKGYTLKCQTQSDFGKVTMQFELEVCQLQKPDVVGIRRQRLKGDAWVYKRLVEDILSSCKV
Sequence of MAPK15 (human) (Q8TD08 whole entry, looked up): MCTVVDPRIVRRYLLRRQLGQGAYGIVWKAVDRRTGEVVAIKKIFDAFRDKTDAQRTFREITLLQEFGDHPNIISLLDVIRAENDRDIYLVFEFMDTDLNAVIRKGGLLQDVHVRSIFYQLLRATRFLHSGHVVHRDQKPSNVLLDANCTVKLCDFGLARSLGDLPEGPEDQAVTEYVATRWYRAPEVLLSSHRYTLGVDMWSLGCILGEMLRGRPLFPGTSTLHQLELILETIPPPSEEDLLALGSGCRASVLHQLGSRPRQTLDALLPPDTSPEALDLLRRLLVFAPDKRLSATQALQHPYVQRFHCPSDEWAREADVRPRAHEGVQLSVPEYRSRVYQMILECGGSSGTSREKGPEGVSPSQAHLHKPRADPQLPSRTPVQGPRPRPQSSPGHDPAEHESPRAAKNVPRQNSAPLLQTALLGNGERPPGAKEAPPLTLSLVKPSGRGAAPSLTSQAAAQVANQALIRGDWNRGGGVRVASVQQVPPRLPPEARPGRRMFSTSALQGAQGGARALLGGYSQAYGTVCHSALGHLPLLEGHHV
Sequence of MAPK14 (human) (Q16539 whole entry, looked up): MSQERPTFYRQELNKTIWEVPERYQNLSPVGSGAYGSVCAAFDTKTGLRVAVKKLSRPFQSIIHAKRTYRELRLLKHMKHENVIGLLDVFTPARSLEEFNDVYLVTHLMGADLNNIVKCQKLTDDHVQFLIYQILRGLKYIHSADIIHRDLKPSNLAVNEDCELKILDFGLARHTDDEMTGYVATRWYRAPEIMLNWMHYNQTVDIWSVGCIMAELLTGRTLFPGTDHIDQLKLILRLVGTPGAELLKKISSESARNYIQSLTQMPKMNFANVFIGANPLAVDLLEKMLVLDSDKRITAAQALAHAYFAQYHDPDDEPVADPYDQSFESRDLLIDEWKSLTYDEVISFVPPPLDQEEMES
Sequence of PRKAA1 PRKAB2 PRKAG1 (human) (O43741 whole entry, looked up): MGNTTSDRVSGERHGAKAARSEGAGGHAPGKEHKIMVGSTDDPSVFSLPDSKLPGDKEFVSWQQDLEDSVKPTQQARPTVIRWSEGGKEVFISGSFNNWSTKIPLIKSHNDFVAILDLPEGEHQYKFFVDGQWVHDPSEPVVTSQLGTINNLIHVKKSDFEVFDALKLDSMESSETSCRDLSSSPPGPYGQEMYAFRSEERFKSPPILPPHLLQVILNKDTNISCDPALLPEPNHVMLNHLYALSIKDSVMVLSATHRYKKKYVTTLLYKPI
Sequence of PRKAA1 PRKAB2 PRKAG1 (human) (P54619 whole entry, looked up): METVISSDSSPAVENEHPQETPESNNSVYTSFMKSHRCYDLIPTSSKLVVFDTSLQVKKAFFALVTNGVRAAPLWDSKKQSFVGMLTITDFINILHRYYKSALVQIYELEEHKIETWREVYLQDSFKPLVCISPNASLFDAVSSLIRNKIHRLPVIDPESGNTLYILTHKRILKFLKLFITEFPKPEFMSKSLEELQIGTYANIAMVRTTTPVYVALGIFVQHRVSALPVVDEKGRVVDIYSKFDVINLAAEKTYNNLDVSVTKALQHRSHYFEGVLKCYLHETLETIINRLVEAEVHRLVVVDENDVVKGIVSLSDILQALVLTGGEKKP
Sequence of PRKAA1 PRKAB2 PRKAG1 (human) (Q13131 whole entry, looked up): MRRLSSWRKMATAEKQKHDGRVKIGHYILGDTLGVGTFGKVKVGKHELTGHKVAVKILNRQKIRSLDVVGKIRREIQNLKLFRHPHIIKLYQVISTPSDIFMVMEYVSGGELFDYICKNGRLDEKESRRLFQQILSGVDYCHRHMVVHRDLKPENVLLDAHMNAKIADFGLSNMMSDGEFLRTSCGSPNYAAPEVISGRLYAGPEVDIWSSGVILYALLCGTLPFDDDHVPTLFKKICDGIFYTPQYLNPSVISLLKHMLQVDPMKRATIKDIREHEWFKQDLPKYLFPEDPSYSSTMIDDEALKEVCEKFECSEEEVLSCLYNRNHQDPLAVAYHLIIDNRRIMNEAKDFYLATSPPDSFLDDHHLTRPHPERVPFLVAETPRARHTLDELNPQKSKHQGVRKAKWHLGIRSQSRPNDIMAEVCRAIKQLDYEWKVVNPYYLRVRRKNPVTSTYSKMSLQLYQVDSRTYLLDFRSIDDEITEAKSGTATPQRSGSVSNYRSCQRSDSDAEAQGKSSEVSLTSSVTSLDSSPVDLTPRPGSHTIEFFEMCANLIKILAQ
Sequence of TEK (human) (Q02763 whole entry, looked up): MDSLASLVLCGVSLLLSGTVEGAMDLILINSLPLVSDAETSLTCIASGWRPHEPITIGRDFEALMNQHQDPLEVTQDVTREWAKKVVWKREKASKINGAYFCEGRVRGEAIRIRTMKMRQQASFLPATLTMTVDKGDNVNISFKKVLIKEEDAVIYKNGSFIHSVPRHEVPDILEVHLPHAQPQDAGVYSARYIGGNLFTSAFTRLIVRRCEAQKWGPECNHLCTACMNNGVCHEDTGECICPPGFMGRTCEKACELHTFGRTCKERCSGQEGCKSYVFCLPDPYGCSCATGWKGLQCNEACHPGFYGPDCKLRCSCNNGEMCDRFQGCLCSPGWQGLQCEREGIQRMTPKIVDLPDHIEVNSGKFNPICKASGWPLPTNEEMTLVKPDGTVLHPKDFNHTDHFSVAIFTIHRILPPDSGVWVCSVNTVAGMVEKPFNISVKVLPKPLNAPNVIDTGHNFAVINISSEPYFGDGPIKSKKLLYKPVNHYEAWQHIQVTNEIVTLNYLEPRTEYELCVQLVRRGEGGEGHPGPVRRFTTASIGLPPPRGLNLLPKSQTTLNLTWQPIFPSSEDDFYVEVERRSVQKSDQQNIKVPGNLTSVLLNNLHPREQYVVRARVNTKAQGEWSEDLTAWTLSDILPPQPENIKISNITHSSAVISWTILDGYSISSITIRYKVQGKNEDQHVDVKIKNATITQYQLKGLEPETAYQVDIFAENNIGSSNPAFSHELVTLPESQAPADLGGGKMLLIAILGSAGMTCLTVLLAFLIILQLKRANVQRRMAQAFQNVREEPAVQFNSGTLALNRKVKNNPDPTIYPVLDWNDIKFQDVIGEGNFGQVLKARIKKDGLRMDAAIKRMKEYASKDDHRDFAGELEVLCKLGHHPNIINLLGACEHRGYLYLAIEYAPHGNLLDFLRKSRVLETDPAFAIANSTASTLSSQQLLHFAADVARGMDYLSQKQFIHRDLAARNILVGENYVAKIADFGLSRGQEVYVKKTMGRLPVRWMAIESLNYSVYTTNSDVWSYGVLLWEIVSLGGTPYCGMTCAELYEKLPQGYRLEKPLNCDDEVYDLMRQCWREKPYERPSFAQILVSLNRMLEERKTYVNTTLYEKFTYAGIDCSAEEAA
Sequence of AURKB (human) (Q96GD4 whole entry, looked up): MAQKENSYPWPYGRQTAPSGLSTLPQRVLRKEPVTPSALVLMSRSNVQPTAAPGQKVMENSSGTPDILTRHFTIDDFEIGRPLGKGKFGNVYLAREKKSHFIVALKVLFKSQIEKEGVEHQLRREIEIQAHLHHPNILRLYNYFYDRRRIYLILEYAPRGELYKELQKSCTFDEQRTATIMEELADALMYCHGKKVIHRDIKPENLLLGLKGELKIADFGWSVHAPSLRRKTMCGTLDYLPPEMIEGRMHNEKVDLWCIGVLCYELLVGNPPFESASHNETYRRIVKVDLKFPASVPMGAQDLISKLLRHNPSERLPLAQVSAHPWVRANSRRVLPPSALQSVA

For `CNc1nc(Nc2ccc(C(=O)N3CCOCC3)cc2OC)ncc1Cl`, the residual activity (CSNK2A1 (human); compound 1.0 µM) was 50%, the residual activity (CSNK2A1 (human); compound 10.0 µM) was 88% and the residual activity (MELK (human); compound 1.0 µM) was 88%. For the same compound, the residual activity (MELK (human); compound 10.0 µM) was 98%, the residual activity (MAPK14 (human); compound 1.0 µM) was 71% and the residual activity (MAPK14 (human); compound 10.0 µM) was 93%. For the same compound, the residual activity ([1]; compound 1.0 µM) was 91%, the residual activity ([1]; compound 10.0 µM) was 71% and the residual activity (MAP2K1 (human); compound 1.0 µM) was 106%. For the same compound, the residual activity (MAP2K1 (human); compound 10.0 µM) was 93%, the residual activity (PRKAA1 or PRKAA2 (rat)) was 89% and the residual activity (TEK (human); compound 1.0 µM) was 79%. For the same compound, the residual activity (TEK (human); compound 10.0 µM) was 90%, the residual activity (FLT1 (human)) was 65% and the residual activity (MAPK15 (human); compound 1.0 µM) was 74%. For the same compound, the residual activity (MAPK15 (human); compound 10.0 µM) was 82%, the kinase still bound, per cent of control [2] was 100% and the kinase still bound, per cent of control (HUNK (human)) was 98%. It also gave a kinase still bound, per cent of control (CAMK2G (human)) of 93%, a kinase still bound, per cent of control (NEK9 (human)) of 93% and a kinase still bound, per cent of control (SRPK1 (human)) of 81%. It also gave a kinase still bound, per cent of control (AKT2 (human)) of 100%, a kinase still bound, per cent of control (NTRK2 (human)) of 93% and a kinase still bound, per cent of control (FGFR1 (human)) of 55%. The kinase still bound, per cent of control (DAPK3 (human)) was 63%, the kinase still bound, per cent of control (AURKB (human)) was 100% and the kinase still bound, per cent of control (MAP4K3 (human)) was 100%. For the same compound, the kinase still bound, per cent of control (RPS6KA1 KD1 (human)) was 100%, the kinase still bound, per cent of control (PDGFRA (human)) was 87% and the kinase still bound, per cent of control (PKN1 (human)) was 100%. The kinase still bound, per cent of control (DDR1 (human)) was 100%, the kinase still bound, per cent of control (ACVR2A (human)) was 75% and the kinase still bound, per cent of control [3] was 93%. It also gave a kinase still bound, per cent of control (OXSR1 (human)) of 100%, a kinase still bound, per cent of control (WEE2 (human)) of 95% and a kinase still bound, per cent of control (GAK (human)) of 25%. For the same compound, the kinase still bound, per cent of control (MAP2K7 (human)) was 100%, the kinase still bound, per cent of control (SNRK (human)) was 100% and the kinase still bound, per cent of control (MARK3 (human)) was 98%. For the same compound, the kinase still bound, per cent of control (BMPR1A (human)) was 100%, the kinase still bound, per cent of control (PRKX (human)) was 99% and the kinase still bound, per cent of control [4] was 100%. For the same compound, the kinase still bound, per cent of control (EGFR (human)) was 100% and the kinase still bound, per cent of control (PAK3 (human)) was 88%.
